Reference: a melting point compilation (Tetko et al.; mined from patent text by program, amines drawn as free bases though some values may be those of a salt)

`CNC(=O)C(Cc1ccc(OC)cc1)NC(=O)C(CC(C)C)C(CC(=O)O)SC(C)=O` (stereo not given) gave a melting point of 92 to 95 °C.
`C=CCNc1cc(C(=O)O)cc(S(N)(=O)=O)c1Oc1ccccc1` showed a melting point of 223 to 225 °C.
With `COc1cc2c(cc1OC)CCCC(C(=O)O)=C2` the melting point was 158 to 159 °C.
`CN(Cc1cc(C(C)(C)C)c(O)c(C(C)(C)C)c1)n1ccnc1` showed a melting point of 139 °C.
With `ClC1=Nc2cc(Cl)ccc2Sc2cscc21` the melting point was 234 to 235 °C.
Compound `COCCCNS(=O)(=O)NC(=O)OCc1ccc(OCCOC)cc1Oc1ncc(C(F)(F)F)cc1Cl` has a melting point of 149 to 150 °C.
`Brc1ccc(-c2cc3nccnc3[nH]2)cc1` showed a melting point of 326 to 329 °C.
`CC(COc1c(-c2ccccc2)c(=O)oc2ccccc12)CN1CCOCC1` (stereo not given) showed a melting point of 113 °C.
For `Cc1nc2c(O)cccn2c1C=O`, the melting point was 251 to 252 °C.
Compound `Cc1ccccc1C(=O)NC1CCC(=O)N2CCCC(C(=O)NC3CC(=O)OC3OCc3ccccc3)N2C1=O` (stereo not given) has a melting point of 106 to 110 °C.
With `CCOC(=O)c1cn(NC=O)c2cc3c(cc2c1=O)OCO3` the melting point was 255 to 257 °C.
For `Cc1c(SCCCSCCc2ccccc2)ccnc1CSc1ccncc1`, the melting point was 48 to 50 °C.
With `CC(C)(C)c1ccnc(Oc2ccc(CCNc3ncnc4nccnc34)cc2)c1` the melting point was 156 to 157 °C.
Work on `COCc1nnc(N2N=C(c3ccc([N+](=O)[O-])c(Cl)c3)c3cc4c(cc3C[C@H]2C)OCO4)s1` yielded a melting point of 208 to 210 °C.
With `Nc1ccccc1C(O)c1cc(C(F)(F)F)nc2c(C(F)(F)F)cccc12` (stereo not given) the melting point was 146 °C.
Compound `CCOc1n[nH]c(=O)n1CC` has a melting point of 115 °C.
`COC(=O)C(NS(=O)(=O)c1ccc(-c2ccc(NC(=O)c3oc4cccc(C)c4c3C)cc2)cc1)C(C)C` (stereo not given) gave a melting point of 199 to 200 °C.
`CC(=O)C(=NNc1cccc(C(F)(F)F)c1)C(C)=O` gave a melting point of 108 to 109 °C.
`CCOP(=O)(Cc1ccc(NC(=O)CCc2c(C)noc2-c2ccccc2)cc1)OCC` showed a melting point of 114 to 115 °C.
For `COc1ccc(C(=O)Nc2cc(NC(=O)c3cccc(N(C)C)c3)ccc2Br)cc1OC`, the melting point was 184 °C.
Compound `CC(=O)NC[C@H]1CN(c2ccc(N3CCC(n4cc(C=O)nn4)CC3)c(F)c2)C(=O)O1` has a melting point of 168 to 170 °C.
Work on `OCc1cnc2c(Cl)cccc2c1O` yielded a melting point greater than 300 °C.
In the case of `CCN(CC)c1ccc(C2(c3c(C)n(CCOC)c4ccccc34)OC(=O)c3ccccc32)c(C)c1` (stereo not given), the melting point is reported as 140 to 143 °C.
`CCCCS(=O)(=O)NC(=O)c1ccc(C(=O)NCCO)nc1` gave a melting point of 168 to 169 °C.
With `COCOc1ccc(C(=O)COc2cc(OCc3ccccc3)ccc2CO)c(OCc2ccccc2)c1` the melting point was 115 to 118 °C.
`Cc1ccnn1-c1c(Cl)cc(C(F)(F)F)cc1Cl` showed a melting point of 78 to 84 °C.
In the case of `CC(C)C(=O)Oc1cccc2c(-c3ccccc3)c3cccc(OC(=O)C(C)C)c3c(OC(=O)C(C)C)c12`, the melting point is reported as 224 °C.
Work on `O=[N+]([O-])c1ccc(OCC2CCN(c3ccncc3)CC2)cc1` yielded a melting point of 119 to 120 °C.
`CCCCCCCc1c(C(C)C)nc(C(C)C)c(CO)c1-c1ccc(F)cc1` gave a melting point of 73 to 75 °C.
In the case of `CC1Cc2cc(Br)cc(S(N)(=O)=O)c2O1` (stereo not given), the melting point is reported as 167 to 169 °C.
For `CCCCCCCCCCC1CCCC1C(=O)Nc1c(OC)ccc2ncccc12` (stereo not given), the melting point was 57 to 58 °C.
`O=C1CCCN1c1cccc(CO)c1` gave a melting point of 120 to 121 °C.
For `CCCCCCC1(C)Nc2ccccc2-c2c([N+](=O)[O-])cnn21` (stereo not given), the melting point was 86 to 88 °C.
Work on `CN(C)C=Nc1c(Cl)cc(N=Cc2cccc(C(F)(F)F)c2)cc1Cl` yielded a melting point of 62 to 64 °C.
`COCCOc1ccc(N)c([N+](=O)[O-])c1` showed a melting point of 89 to 90 °C.
Work on `CCOC(=O)C1=C(CO)NC(C(F)(F)F)=C(C(=O)OCC)C1c1cccc2nonc12` (stereo not given) yielded a melting point of 110 to 111 °C.
Work on `Cc1ccc(C2COc3c(ccc(O)c3C)C2)cc1` (stereo not given) yielded a melting point of 136 to 137 °C.
With `CCNC(=O)c1c([Si](C)(C)C)ccc(CF)c1Cl` the melting point was 104 to 105 °C.
For `O=C(CC(c1ccccc1)(c1ccccc1)c1ccccc1)Nc1ccc(N2CCNCC2)cc1`, the melting point was 193 to 195 °C.
Compound `Cc1nc(-c2c(Cl)cc(C(F)(F)F)cc2Cl)[nH]c1S(N)(=O)=O` has a melting point of 266 to 267 °C.
For `COc1nc2ccccc2cc1N(C(=O)N1CCN(c2cc(C)cc(C)c2)CC1)C(C)C`, the melting point was 114 to 115 °C.
`CN1c2ccccc2CC(=O)c2ccccc21` showed a melting point of 92 to 93 °C.
In the case of `CN(C)Cc1ccc(NC(=O)Nc2ccc(Oc3cc(Cl)ncn3)cc2)cc1C(F)(F)F`, the melting point is reported as 98 to 105 °C.
In the case of `O=c1c2c(-c3ccc(F)cc3)n[nH]c2c2cccnc2n1-c1ccccc1`, the melting point is reported as 300 °C.
Compound `COc1c(N2CCC(n3ccnn3)C2)c(F)c(N)c2c(=O)c(C(=O)O)cn(C3CC3)c12` (stereo not given) has a melting point of 208 °C.
In the case of `COc1ccc(C2=NN(Cc3ccccc3O)C(=O)[C@H]3CCCC[C@@H]23)cc1OC` (relative stereo), the melting point is reported as 132 to 133 °C.
With `CS(=O)c1c(C#N)nn(-c2c(Cl)cc(C(F)(F)F)cc2Cl)c1NCc1cnccn1` (stereo not given) the melting point was 198 °C.
With `O=C1OCN(C(=O)OCc2ccccc2)[C@H]1CCBr` the melting point was 85 °C.
In the case of `OC(c1ccccc1)c1ccccc1Cl` (stereo not given), the melting point is reported as 61 to 63 °C.
With `COc1ccc2c(c1)C(=S)N(C)CC(CCCl)O2` (stereo not given) the melting point was 98 to 100 °C.
